Calls of active or inactive are those of the source. The calls are words filed in the database; no cut-off is given here.
Experiments:
[1] = target: T1, Probable G-protein coupled receptor 174 (Homo sapiens, UniProt Q9BXC1); experiment: Inverse agonist activity at human GPR174 expressed in cells assessed as inhibition of CRE-luc reporter activity by measuring decrease in Gs-protein signalling activity relative to control; type: functional, cell-based
[2] = target: T1, Probable G-protein coupled receptor 174; experiment: Antagonist activity at human GPR174 expressed in cells assessed as inhibition of CRE-luc reporter activity by measuring decrease in Gs-protein signalling activity relative to control; type: functional, cell-based; details: filed as antagonist
[3] = target: T1, Probable G-protein coupled receptor 174; experiment: Allosteric modulator activity at human GPR174 expressed in cells assessed as inhibition of CRE-luc reporter activity by measuring decrease in Gs-protein signalling activity relative to control; type: functional, cell-based; details: filed as […] allosteric modulator
[4] = target: T1, Probable G-protein coupled receptor 174; experiment: Inhibition of human GPR174 in anti-CD3/antiCD28-stimulated human PBMC assessed as increase in IL-2 level measured after 2 days by ELISA; type: functional, tissue-based; details: time 2.0 day
[5] = target: T1, Probable G-protein coupled receptor 174; experiment: Inhibition of GPR174 (unknown origin) in cells assessed as incorporation of nuclear localization sequence into transmembrane protein by cellular redistribution assay; type: functional
[6] = target: T1, Probable G-protein coupled receptor 174; experiment: Inhibition of human GPR174 in anti-CD3/antiCD28-stimulated human regulatory T cells assessed as reduction in CTLA4 expression relative to control; type: functional, tissue-based; details: T cell, dose 0.19-6 µM
[7] = target: T1, Probable G-protein coupled receptor 174; experiment: Inhibition of human GPR174 in anti-CD3/antiCD28-stimulated human PBMC assessed as increase in IL-6 production at 10 uM measured after 2 days relative to control; type: functional, tissue-based; details: time 2.0 day
[8] = target: T1, Probable G-protein coupled receptor 174; experiment: Inhibition of human GPR174 in anti-CD3/antiCD28-stimulated human PBMC assessed as CD8+ cell population at 10 uM measured after 2 days relative to control; type: functional, tissue-based; design: scale not given: the % may be the effect or the level left; details: time 2.0 day
[9] = target: T1, Probable G-protein coupled receptor 174; experiment: Inhibition of human GPR174 in anti-CD3/antiCD28-stimulated human PBMC assessed as increase in TNFalpha production at 10 uM measured after 2 days relative to control; type: functional, tissue-based; details: time 2.0 day
[10] = target: T1, Probable G-protein coupled receptor 174; experiment: Inhibition of human GPR174 in anti-CD3/antiCD28-stimulated human PBMC assessed as increase in IFNgamma production at 10 uM measured after 2 days relative to control; type: functional, tissue-based; details: time 2.0 day
[11] = target: T1, Probable G-protein coupled receptor 174; experiment: Inhibition of human GPR174 in anti-CD3/antiCD28-stimulated human PBMC assessed as reduction in PD-L1 expression in CD4+ T cell relative to control; type: functional, tissue-based
[12] = target: T1, Probable G-protein coupled receptor 174; experiment: Inhibition of GPR174 in anti-CD3/antiCD28-stimulated human PBMC assessed as increase in IFNgamma level measured after 2 days by ELISA; type: functional, tissue-based; details: time 2.0 day
[13] = target: T1, Probable G-protein coupled receptor 174; experiment: Inhibition of human GPR174 in anti-CD3/antiCD28-stimulated CD45RA-FOXP+ human PBMC assessed as reduction in CTLA4 expression measured in non-memory Treg cells relative to control; type: functional, cell-based; details: dose 0.19-6 µM
[14] = target: T1, Probable G-protein coupled receptor 174; experiment: Inhibition of human GPR174 in anti-CD3/antiCD28-stimulated human PBMC assessed as increase in IL-2 production measured after 2 days; type: functional, tissue-based; details: dose 3-60 µM, time 2.0 day
[15] = target: T1, Probable G-protein coupled receptor 174; experiment: Inhibition of human GPR174 in anti-CD3/antiCD28-stimulated CD45RA-FOXP+ human PBMC assessed as reduction in CTLA4 expression measured in memory Treg cells relative to control; type: functional, cell-based; details: dose 0.19-6 µM
[16] = target: T1, Probable G-protein coupled receptor 174; experiment: Inhibition of human GPR174 in anti-CD3/antiCD28-stimulated human PBMC assessed as reduction in TGIT expression in CD8+ T cell relative to control; type: functional, tissue-based
[17] = target: T1, Probable G-protein coupled receptor 174; experiment: Inhibition of human GPR174 in anti-CD3/antiCD28-stimulated human PBMC assessed as CD4+ cell population at 10 uM measured after 2 days relative to control; type: functional, tissue-based; design: scale not given: the % may be the effect or the level left; details: time 2.0 day
[18] = target: T1, Probable G-protein coupled receptor 174; experiment: Inhibition of human GPR174 in anti-CD3/antiCD28-stimulated human PBMC assessed as increase in natural Treg cells […] at 100 uM measure after 7 days by flow cytometry; type: functional, cell-based; details: time 7.0 day
[19] = target: T1, Probable G-protein coupled receptor 174; experiment: Inhibition of human GPR174 in anti-CD3/antiCD28-stimulated human PBMC assessed as reduction in natural Treg cells (FoxP3+Helios+) measure after 7 days by ELISA; type: functional, cell-based; details: dose 3-30 µM, time 7.0 day
[20] = target: T1, Probable G-protein coupled receptor 174; experiment: Inhibition of human GPR174 in anti-CD3/antiCD28-stimulated human PBMC assessed as reduction in AREG expression in CD4+ T cell relative to control; type: functional, tissue-based
[21] = target: T1, Probable G-protein coupled receptor 174; experiment: Inhibition of human GPR174 in anti-CD3/antiCD28-stimulated human PBMC assessed as reduction in CTLA4 expression relative to control; type: functional, tissue-based; details: dose 0.19-6 µM
[22] = target: T1, Probable G-protein coupled receptor 174; experiment: Inhibition of human GPR174 in anti-CD3/antiCD28-stimulated human PBMC assessed as increase in IL-10 production at 10 uM measured after 2 days relative to control; type: functional, tissue-based; details: time 2.0 day
[23] = target: T1, Probable G-protein coupled receptor 174; experiment: Inhibition of human GPR174 in anti-CD3/antiCD28-stimulated human PBMC assessed as non-T cell cell population at 10 uM measured after 2 days relative to control; type: functional, tissue-based; design: scale not given: the % may be the effect or the level left; details: time 2.0 day
[24] = target: T1, Probable G-protein coupled receptor 174; experiment: Inhibition of human GPR174 in anti-CD3/antiCD28-stimulated human PBMC assessed as reduction in natural Treg cells (FoxP3+Helios+) at 100 uM measure after 7 days by flow cytometry; type: functional, cell-based; details: time 7.0 day
[25] = target: Probable G-protein coupled receptor 174 (Mus musculus) (UniProt Q3U507); experiment: Inhibition of mouse GPR174 in anti-CD3/antiCD28-stimulated mouse splenocytes assessed as increase in IL-2 production at 10 uM measured after 2 days; type: functional, tissue-based; details: Splenocyte, time 2.0 day
[26] = test system: Splenocyte; experiment: Effect on IL-2 production in mouse GPR174 knock out splenocytes at 10 uM measured after 2 days; type: functional, cell-based; details: time 2.0 day

T1 sequence (Q9BXC1 whole entry): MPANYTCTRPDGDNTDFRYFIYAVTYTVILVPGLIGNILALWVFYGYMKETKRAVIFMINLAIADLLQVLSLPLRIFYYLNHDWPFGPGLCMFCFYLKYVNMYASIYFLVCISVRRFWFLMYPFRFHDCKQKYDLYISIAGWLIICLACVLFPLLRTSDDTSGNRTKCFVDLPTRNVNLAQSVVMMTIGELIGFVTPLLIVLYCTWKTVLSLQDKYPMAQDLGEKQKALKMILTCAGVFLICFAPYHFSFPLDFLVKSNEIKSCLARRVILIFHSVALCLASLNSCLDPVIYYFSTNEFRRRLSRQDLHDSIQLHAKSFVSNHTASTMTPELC
Sequence of Probable G-protein coupled receptor 174 (Mus musculus) (Q3U507 whole entry): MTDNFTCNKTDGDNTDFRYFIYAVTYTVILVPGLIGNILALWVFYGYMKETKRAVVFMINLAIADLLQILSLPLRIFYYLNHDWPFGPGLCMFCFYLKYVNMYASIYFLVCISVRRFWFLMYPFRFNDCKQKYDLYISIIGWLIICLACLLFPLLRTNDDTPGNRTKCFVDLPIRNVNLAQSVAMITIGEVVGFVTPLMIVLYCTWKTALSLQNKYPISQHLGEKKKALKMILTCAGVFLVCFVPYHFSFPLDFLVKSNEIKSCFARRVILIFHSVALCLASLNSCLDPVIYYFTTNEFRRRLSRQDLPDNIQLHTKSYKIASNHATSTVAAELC

`C=C(C)COc1ccc(NC(=O)Nc2ccccc2)cc1` was tested, and the Ratio [1] was 3.7.

For `O=C(N/N=C/c1cc(Cl)ccc1O)c1ccncc1`, the Activity [2] was “Active” and the Activity [3] was “Active”.

In the case of `CCCC(=O)c1ccc(N2CCN(S(=O)(=O)c3ccc(C)cc3)CC2)c(F)c1`, the Activity [2] is reported as “Active”.

With `CC(=O)c1ccc(N2CCN(C(=O)c3ccc(F)cc3)CC2)c(F)c1` the Activity [2] was “Active” and the Activity [3] was “Active”.

With `O=C(c1ccccc1)N1CCN(c2cc(N3CCCCC3)c(F)cc2[N+](=O)[O-])CC1` the Activity [4] was “Dose-Dependent Effect”.

`Cc1cc(Cc2ccc(NC(=O)c3cccs3)c(C)c2)ccc1NC(=O)c1cccs1` was tested, and the EC50 [5] was 500 nM, the Activity [2] was “Active” and the Activity [3] was “Active”.

For `Cc1ccc(-c2nnc(Nc3ccccc3)c3ccccc23)cc1S(N)(=O)=O`, the Activity [2] was “Active” and the Activity [3] was “Active”.

For `CC1CCN(c2cc(N3CCN(S(=O)(=O)c4ccccc4)CC3)c([N+](=O)[O-])cc2F)CC1`, the EC50 [5] was 600 nM, the Activity [6] was “Dose-Dependent Effect” and the Activity [7] was “Active”. The Activity [8] was 17.1%, the Activity [9] was “Active” and the Activity [10] was “Active”. For the same compound, the Activity [11] was “Dose-Dependent Effect”, the Activity [12] was “Active” and the Activity [13] was “Active”. The Activity [4] was “Dose-Dependent Effect”, the Activity [14] was “Dose-Dependent Effect” and the Activity [15] was “Active”. For the same compound, the Activity [16] was “Dose-Dependent Effect”, the Activity [17] was 46.2% and the Activity [18] was “Active”. For the same compound, the Activity [19] was “Dose-Dependent Effect”, the Activity [20] was “Dose-Dependent Effect” and the Activity [21] was “Dose-Dependent Effect”. For the same compound, the Activity [22] was “Active”, the Activity [23] was 33.9% and the Activity [24] was “Active”. The Activity [25] was “Active” and the Activity [26] was “inactive”.

With `CCOc1ccc(C2C3=C(CCCC3=O)NC3=C2C(=O)c2ccccc23)cn1` (stereo not given) the Ratio [1] was 3.

With `Cc1ccccc1Nc1nnc(-c2ccc(C)c(S(N)(=O)=O)c2)c2ccccc12` the Activity [2] was “Active” and the Activity [3] was “Active”.

`Cc1cc(C(=O)N/N=C/c2cc(Br)ccc2O)c(C)o1` was tested, and the Activity [2] was “Active” and the Activity [3] was “Active”.
